From patent US9422239B1, “Dual PPAR-δ PPAR-γ agonists” (Auburn University, priority 2013, dated 2016)
“Also recorded” adds a separate entry of the source.

What was measured:
PPARγ (AP2-PPRE) = biological target: T1, PPARγ (AP2-PPRE) (Homo sapiens, UniProt P37231); assay: AP2-PPRE luciferase assay in HEK-293 cells; type: cell-based
T1 construct: expressed in transfected cells; host or cells: HEK-293
T1 sequence (P37231 1-505): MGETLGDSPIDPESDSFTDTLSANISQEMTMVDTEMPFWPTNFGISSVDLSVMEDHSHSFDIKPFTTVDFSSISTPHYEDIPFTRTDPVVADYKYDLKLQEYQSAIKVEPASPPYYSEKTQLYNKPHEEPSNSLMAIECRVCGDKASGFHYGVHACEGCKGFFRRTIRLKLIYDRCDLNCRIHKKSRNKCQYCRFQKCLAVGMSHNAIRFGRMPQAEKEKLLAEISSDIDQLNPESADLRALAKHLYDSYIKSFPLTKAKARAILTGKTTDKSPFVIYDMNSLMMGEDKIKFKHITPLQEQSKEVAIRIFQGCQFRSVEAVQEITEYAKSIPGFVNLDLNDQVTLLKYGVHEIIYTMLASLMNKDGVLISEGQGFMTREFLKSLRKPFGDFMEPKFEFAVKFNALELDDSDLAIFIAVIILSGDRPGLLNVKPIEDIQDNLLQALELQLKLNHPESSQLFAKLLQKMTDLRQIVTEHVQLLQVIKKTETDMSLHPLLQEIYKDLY
T1 sequence (P19793 1-462 partner): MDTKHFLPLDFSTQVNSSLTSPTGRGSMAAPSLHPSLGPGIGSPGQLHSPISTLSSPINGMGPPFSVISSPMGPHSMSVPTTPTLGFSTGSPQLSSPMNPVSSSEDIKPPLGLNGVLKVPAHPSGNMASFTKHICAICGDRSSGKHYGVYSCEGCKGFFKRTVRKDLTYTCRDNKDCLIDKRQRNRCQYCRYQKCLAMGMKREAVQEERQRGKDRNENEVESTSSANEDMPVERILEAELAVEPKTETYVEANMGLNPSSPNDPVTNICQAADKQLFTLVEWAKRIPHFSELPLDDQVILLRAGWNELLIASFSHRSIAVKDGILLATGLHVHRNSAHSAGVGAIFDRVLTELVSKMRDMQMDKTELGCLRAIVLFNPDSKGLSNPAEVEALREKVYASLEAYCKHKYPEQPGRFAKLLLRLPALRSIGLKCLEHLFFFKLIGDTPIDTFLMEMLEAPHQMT
From the text: To validate the specificity of the novel compounds towards activation of PPARγ/δ targets, we tested the compounds capacity to bind to select PPARγ/δ Peroxisome Proliferator Response Elements (PPRE). The PPRE are unique sites located in the promoter region where PPARs bind and transcriptionally activate the target genes. AP2-PPRE is the PPARγ target involved in adipocyte growth and differentiation. PDK4-PPRE is a PPARδ target involved in regulating energy metabolism in the cell. These PPREs were inserted into a PGL3 luciferase vectors containing CMV promoters (ADDGENE) using PCR. These vectors were co-transfected with RXR, PPARγ/PPARδ and p-galactosidase vectors into HEK-293 cells using Lipofectamine 2000 (Invitrogen). Relative light units (RLU) were measured using a Glomax Luminometer (Promega). Data were standardized to p-galactosidase activity using ONPG (Promega).

3T3-L1 adipocytes = assay: Lipid accumulation by oil red-o staining; type: cell-based; settings: 6 days, oil red-o stain
Method: 3T3L1 adipocytes were cultured and treated with the novel compounds for a period of 6 days. Lipid accumulation was determined by oil red-o staining, and measured the absorbance spectrophotometrically at a wavelength of 510 nm and standardized to total protein concentrations. Data from lipid accumulation studies were compared to cells treated with rosiglitazone (a full PPARγ agonist).

[1] = tested on: C2C12 skeletal muscle cells; assay: Mitochondrial biogenesis markers by quantitative RT-PCR; type: cell-based; settings: 4 days
Method: Therefore, to test the effects of the novel compounds on mitochondrial biogenesis, C2C12 skeletal muscle cells were cultured and treated with the novel compounds for 4 days. Changes associated with markers for mitochondrial biogenesis were determined by quantitative real time PCR.

[2] = Heart size (heart weight to body weight ratio); type: in vivo; settings: 10 mg/kg oral daily for 1 month, wild type and db/db mice
Method: Diabetic db/db mice were fed a normal rodent chow diet. […] Mice were then weighed and their hearts were extracted and weighed. The heart weight of the mice compared to the body weight of the mice was then calculated based upon heart weight to body weight ratio.

db/db mice = assay: Y maze behavioral test, compound 9; type: in vivo; settings: oral, 1 mg/kg
Method: Groups of mice can be subjected to Y-maze tests and object recognition tests (ORT) to determine the improvement of working and declarative memory. Briefly the Y-maze test involves the novel arm being blocked, so mice are allowed to explore the other two arms for 15 minutes. Appropriate external and internal cues are assigned for each arm. After 15 minute training sessions, the mice are caged in the same room for 4 hours (holding session) followed by the novel arm exploration where mice are allowed to explore the novel arm for […].

[3] = tested on: BDNF promoter in primary hippocampal neuronal cells; assay: BDNF promoter luciferase activity; type: cell-based, rat; settings: dose response curve
From the text: Primary hippocampal cells: Rat primary neuron cultures for luciferase assays as well as westerns and all other cell cultured assays are described herein. Rat primary neuron cultures can be generated from embryonic day 18-21 rat embryo (male and female) brains (Sprague Dawley) following known protocols. Briefly, the cortices, together with hippocampi, can be dissected and cells can be dissociated with 0.25% trypsin (Invitrogen), treated with 0.05% DNase I (Roche). To remove alternative cells and RBC's, tissue slurry can be allowed to sediment by gravity for 30 minutes at room temperature. Lower cellular suspension can then be plated on poly-D-lysine-coated dishes in Neurobasal A medium (Invitrogen) with B27 supplement (Invitrogen), penicillin (PAA Laboratories, 100 U/ml), streptomycin (PAA Laboratories, 0.1 mg/ml), and 1 mM L-glutamine (PAA Laboratories). Mitotic inhibitor 5-fluoro-2′-deoxyuridine (Sigma) can be added to the medium (10 μM) at 2 days in vitro (DIV) to remove fibroblast and astrocyte contamination. To test isolation purity for neurons, markers for neurons (MAP2) specificity can be measured by gene and western analysis.
Nine distinct transcriptional initiation sites exist: eight in the 5′ noncoding exon and one preceding coding exon IX, indicating nine different promoters control BDNF transcription sites. […]

[4] = Biodistribution by LC-Mass Spectral analysis; settings: mice; for concentration at 4 h: mouse, po, 3 mg/kg, 3 mg/kg (table)

Cc1ccc(CNCCCN(Cc2ccc(C(=O)O)cc2)Cc2cc(C(F)(F)F)cc(C(F)(F)F)c2)cc1 [Compound 9]
Binding affinity for the AP2-PPRE (PPARγ (AP2-PPRE); luciferase assay, HEK-293 cells, 10 μM): less binding affinity
Activation of the AP2-PPRE (PPARγ (AP2-PPRE); transcriptional assays): minimally activates
Lipid accumulation (3T3-L1 adipocytes): less lipid accumulation
Lipid accumulation (3T3-L1 adipocytes; listed as compound 9): negligible effects
Cytochrome oxidase c 4-2 subunit expression [1]: significantly increased
Gene expression of mitochondrial markers [1]: increases
Heart size [2]: lacks increase in heart size; also recorded: decreased heart size
Cognition in Y maze behavioral tests (db/db mice): improves cognition
BDNF promoter activity (luciferase) [3]: inducing
Detection in the brain (crosses the blood brain barrier) ([4]; oral, 4 hours): detected
concentration at 4 h ([4]; adipose, Concentration): 40.4 ng/mL
concentration at 4 h ([4]; adipose, Tissue Concentration): 15.2 ng/mL
concentration at 4 h ([4]; adipose, Tissue Distribution): 3.47 ng/mL
concentration at 4 h ([4]; blood, Concentration): 144 ng/mL
concentration at 4 h ([4]; brain, Concentration): 38.7 ng/mL
concentration at 4 h ([4]; brain, Tissue Concentration): 17.2 ng/mL
concentration at 4 h ([4]; brain, Tissue Distribution): 2.96 ng/mL
concentration at 4 h ([4]; heart, Concentration): 22.1 ng/mL
concentration at 4 h ([4]; heart, Tissue Concentration): 3.19 ng/mL
concentration at 4 h ([4]; heart, Tissue Distribution): 1.35 ng/mL
concentration at 4 h ([4]; liver, Concentration): 200 ng/mL
concentration at 4 h ([4]; liver, Tissue Concentration): 24.8 ng/mL
concentration at 4 h ([4]; liver, Tissue Distribution): 11.9 ng/mL
